Experiments:
Experiment in all cases: Test E postemergence
[1] = test system: waterhemp_RES2 (ALS & HPPD resistant common waterhemp); assay type: in vivo, Amaranthus rudis
Description: (§1) Seeds of plant species selected from corn (Zea mays), soybean (Glycine max), velvetleaf (Abutilon theophrasti), lambsquarters (Chenopodium album), wild poinsettia (Euphorbia heterophylla), palmer pigweed (Amaranthus palmeri), waterhemp (common waterhemp, Amaranthus rudis), surinam grass (Brachiaria decumbens), large (Lg) crabgrass (Digitaria sanguinalis), Brazilian crabgrass (Digitaria horizontalis), fall panicum (Panicum dichotomiflorum), giant foxtail (Setaria faberii), green foxtail (Setaria viridis), goosegrass (Eleusine indica), johnsongrass (Sorghum halepense), ragweed (common ragweed, Ambrosia elatior), barnyardgrass (Echinochloa crus-galli), sandbur (southern sandbur, Cenchrus echinatus), arrowleaf sida (Sida rhombifolia), Italian ryegrass (Lolium multiflorum), dayflower (Virginia (VA) dayflower, Commelina virginica), field bindweed (Convolvulus arvensis), morningglory (Ipomoea coccinea), nightshade (eastern black nightshade, Solanum ptycanthum), kochia (Kochia scoparia), yellow nutsedge (Cyperus esculentus), cocklebur (common cocklebur, Xanthium strumarium), smartweed (ladysthumb smartweed, and hairy beggarticks (Bidens pilosa), were planted into a silt loam soil and treated preemergence with test chemicals formulated in a non-phytotoxic solvent mixture which included a surfactant.
(§2) At the same time, plants from these crop and weed species and also horseweed (Canada horseweed, Conyza canadensis), waterhemp_RES1, (ALS & Triazine resistant common waterhemp, Amaranthus rudis), and waterhemp_RES2, (ALS & HPPD resistant common waterhemp, Amaranthus rudis) were planted in pots containing Redi-Earth® planting medium (Scotts Company, 14111 Scottslawn Road, Marysville, Ohio 43041) comprising spaghnum peat moss, vermiculite, wetting agent and starter nutrients were treated with postemergence applications of test chemicals formulated in the same manner. Plants ranged in height from 2 to 18 cm for postemergence treatments (1- to 4-leaf stage). Treated plants and controls were maintained in a greenhouse for 14 to 21 days, after which time all species were compared to controls and visually evaluated. Plant response ratings, summarized in Table E, are based on a scale of 0 to 100 where 0 is no effect and 100 is complete control. A dash (-) response means no test result.

[2] = test system: waterhemp; assay type: in vivo, Amaranthus rudis
Description: as §1, §2

[3] = test system: barnyardgrass; assay type: in vivo, Echinochloa crus-galli
Description: as §1, §2

[4] = test system: field bindweed; assay type: in vivo, Convolvulus arvensis
Description: as §1, §2

[5] = Postemergence, 31 g ai/ha, scale 0 to 100
[6] = Postemergence, 62 g ai/ha, scale 0 to 100
[7] = Postemergence, 125 g ai/ha, scale 0 to 100
[8] = postemergence, 16 g ai/ha, scale 0 to 100, 0 no effect, 100 complete control
[9] = postemergence, 8 g ai/ha, scale 0 to 100, 0 no effect, 100 complete control
[10] = Postemergence, 250 g ai/ha, scale 0 to 100

Row | Compound | Plant response rating, Waterhemp_RES2 [1, 5] | Plant response rating, Waterhemp_RES2 [1, 6] | Plant response rating, Waterhemp_RES2 [1, 7] | Plant response rating, Waterhemp_RES2 [1, 8] | Plant response rating, Waterhemp [2, 5] | Plant response rating, Waterhemp [2, 6] | Plant response rating, Waterhemp [2, 7] | Plant response rating, Waterhemp [2, 8] | Plant response rating, Barnyardgrass [3, 5] | Plant response rating, Barnyardgrass [3, 6] | Plant response rating, Barnyardgrass [3, 7] | Plant response rating, Barnyardgrass [3, 8] | Plant response rating, Field Bindweed [4, 5] | Plant response rating, Field Bindweed [4, 6] | Plant response rating, Field Bindweed [4, 7] | Plant response rating, Field Bindweed [4, 8] | other results
1 | Clc1cnc(Oc2cccc(Br)c2-n2cc(Br)cn2)nc1 [Compound 65] | 90 | 95 | 98 | 80 | 70 | 75 | 95 | 50 | 0 | 0 | 0 | 0 | 20 | 40 | 40 | 10 | Plant response rating, Waterhemp [2, 9]: 60; Plant response rating, Barnyardgrass [3, 9]: 0; Plant response rating, Field Bindweed [4, 9]: 0
2 | Fc1cnc(Oc2ccccc2-n2cc(Br)cn2)nc1 [Compound 10, 2-[2-(4-bromo-1H-pyrazol-1-yl)phenoxy]-5-fluoropyrimidine] |  |  |  |  |  |  |  |  |  |  |  |  |  |  |  |  | pest or weed control at 31 g/ha ([1]; Amaranthus tuberculatus, post-emergence, Postemergence, 31 g ai/ha, scale 0 to 100, read-out: Plant response rating, Waterhemp_RES2): 60%; pest or weed control at 62 g/ha ([1]; Amaranthus tuberculatus, post-emergence, Postemergence, 62 g ai/ha, scale 0 to 100, read-out: Plant response rating, Waterhemp_RES2): 75%; pest or weed control at 125 g/ha ([1]; Amaranthus tuberculatus, post-emergence, Postemergence, 125 g ai/ha, scale 0 to 100, read-out: Plant response rating, Waterhemp_RES2): 80%; pest or weed control at 250 g/ha ([1]; Amaranthus tuberculatus, post-emergence, Postemergence, 250 g ai/ha, scale 0 to 100, read-out: Plant response rating, Waterhemp_RES2): 90%; pest or weed control at 16 g/ha ([1]; Amaranthus tuberculatus, post-emergence, postemergence, 16 g ai/ha, scale 0 to 100, 0 no effect, 100 complete control, read-out: Plant response rating, Waterhemp_RES2): 50%; pest or weed control at 31 g/ha ([2]; Amaranthus tuberculatus, post-emergence, Postemergence, 31 g ai/ha, scale 0 to 100, read-out: Plant response rating, Waterhemp): 80%; pest or weed control at 62 g/ha ([2]; Amaranthus tuberculatus, post-emergence, Postemergence, 62 g ai/ha, scale 0 to 100, read-out: Plant response rating, Waterhemp): 85%; pest or weed control at 125 g/ha ([2]; Amaranthus tuberculatus, post-emergence, Postemergence, 125 g ai/ha, scale 0 to 100, read-out: Plant response rating, Waterhemp): 95%; pest or weed control at 250 g/ha ([2]; Amaranthus tuberculatus, post-emergence, Postemergence, 250 g ai/ha, scale 0 to 100, read-out: Plant response rating, Waterhemp): 95%; pest or weed control at 31 g/ha ([3]; Echinochloa crus-galli, post-emergence, Postemergence, 31 g ai/ha, scale 0 to 100, read-out: Plant response rating, Barnyardgrass): 0%; pest or weed control at 62 g/ha ([3]; Echinochloa crus-galli, post-emergence, Postemergence, 62 g ai/ha, scale 0 to 100, read-out: Plant response rating, Barnyardgrass): 0%; pest or weed control at 125 g/ha ([3]; Echinochloa crus-galli, post-emergence, Postemergence, 125 g ai/ha, scale 0 to 100, read-out: Plant response rating, Barnyardgrass): 0%; pest or weed control at 250 g/ha ([3]; Echinochloa crus-galli, post-emergence, Postemergence, 250 g ai/ha, scale 0 to 100, read-out: Plant response rating, Barnyardgrass): 0%; pest or weed control at 16 g/ha ([3]; Echinochloa crus-galli, post-emergence, postemergence, 16 g ai/ha, scale 0 to 100, 0 no effect, 100 complete control, read-out: Plant response rating, Barnyardgrass): 0%; pest or weed control at 31 g/ha ([4]; Convolvulus arvensis, post-emergence, Postemergence, 31 g ai/ha, scale 0 to 100, read-out: Plant response rating, Field Bindweed): 30%; pest or weed control at 62 g/ha ([4]; Convolvulus arvensis, post-emergence, Postemergence, 62 g ai/ha, scale 0 to 100, read-out: Plant response rating, Field Bindweed): 30%; pest or weed control at 125 g/ha ([4]; Convolvulus arvensis, post-emergence, Postemergence, 125 g ai/ha, scale 0 to 100, read-out: Plant response rating, Field Bindweed): 40%; pest or weed control at 250 g/ha ([4]; Convolvulus arvensis, post-emergence, Postemergence, 250 g ai/ha, scale 0 to 100, read-out: Plant response rating, Field Bindweed): 50%; pest or weed control at 16 g/ha ([4]; Convolvulus arvensis, post-emergence, postemergence, 16 g ai/ha, scale 0 to 100, 0 no effect, 100 complete control, read-out: Plant response rating, Field Bindweed): 15%
3 | FC(F)(F)c1cnn(-c2ccccc2Oc2ncc(Cl)cn2)c1 [Compound 16] | 50 | 60 | 70 | 25 | 60 | 85 | 90 | 60 | 0 | 0 | 10 | 0 | 30 | 40 | 50 | 10 | Plant response rating, Waterhemp_RES2 [1, 10]: 85; Plant response rating, Waterhemp [2, 10]: 90; Plant response rating, Barnyardgrass [3, 10]: 15; Plant response rating, Field Bindweed [4, 10]: 60

Source: patent US9695155B2, “Herbicidal substituted pyrimidinyloxy benzene compounds” (E. I. DU PONT DE NEMOURS AND COMPANY, priority 2013, dated 2017)
